Measurements: patent publication US5789542A, “Amphipathic peptides” (Board of Supervisors of Louisiana State University and …, priority 1997, dated 1998)
Where a SMILES comes first, the peptide text is derived from it.

Tests used:
Assay type in all cases: cell-based
murine cell line 3T3 = test: Sublethal concentration, Tryptan blue staining, 3T3 cells; conditions: healthy Swiss mouse fibroblast cells, thirty minutes at 37° C., highest concentration with at least one nucleus not stained
Protocol: (§1) Also shown in Table 1 are sublethal concentrations for some of the peptides against the murine cell lines 3T3 and 3T12. Dilutions of peptide were prepared over a range of concentrations. Equal volumes of peptide solution and 250-750 murine cells were mixed together. The cells were incubated for thirty minutes at 37° C. 50 μL of Tryptan blue stain were then added to each well. Under light microscopy, killed cells could be visualized by the fact that their nuclei were stained. The sublethal dose was the highest concentration for which at least one cell nucleus was not stained. (Blank entries in Table 1 correspond to assays that had not been completed as of the date this application is being filed. Values for those entries will be determined in future assays performed in the same manner.)
(§2) P. aeruginosa and E. coli are Gram-negative bacteria, while S. aureus is a Gram-positive bacterium. 3T3 cells are healthy Swiss mouse fibroblast cells, and 3T12 cells are transformed, immortalized mouse fibroblast cells. Thus the novel peptides (at the proper concentrations) have activity against both Gram-negative and Gram-positive bacteria, while not showing activity against mammalian cells. This combination of properties is itself rather unusual in a lytic peptide.

murine cell line 3T12 = test: Sublethal concentration, Tryptan blue staining, 3T12 cells; conditions: transformed, immortalized mouse fibroblast cells, thirty minutes at 37° C., highest concentration with at least one nucleus not stained
Protocol: as §1, §2

[1] = test system: Pseudomonas aeruginosa ATCC 27853; test: Minimum inhibitory concentration by broth microdilution, P. aeruginosa; conditions: 5×10^4 cells, incubated overnight
Protocol: (§3) Minimum inhibitory concentrations of several of the peptides were measured against E. coli ATCC 25922, Pseudomonas aeruginosa ATCC 27853, and Staphylococcus aureus ATCC 25723. Minimum inhibitory concentrations were obtained by the broth microdilution method. Peptide solutions were prepared over a range of concentrations from 2 μg/mL to 256 μg/mL. 5×10^4 cells were added to the peptide solutions in sterile wells and incubated overnight. Wells in which the organisms grew became turbid. The minimum inhibitory concentration was the lowest concentration that inhibited growth of the organism.
as §2

[2] = test system: Staphylococcus aureus ATCC 25723; test: Minimum inhibitory concentration by broth microdilution, S. aureus; conditions: 5×10^4 cells, incubated overnight
Protocol: as §3, §2

E. coli ATCC 25922 = test: Minimum inhibitory concentration by broth microdilution, E. coli; conditions: 5×10^4 cells, incubated overnight
Protocol: as §3, §2

mammalian cell = test: Mammalian cell permeation to an exterior fluorescent dye; conditions: ratio to antibacterial concentration

COC(=O)[C@H](C)NC(=O)[C@H](CC(C)C)NC(=O)[C@H](CCCCN)NC(=O)[C@H](CCCCN)NC(=O)[C@H](C)NC(=O)[C@H](CC(C)C)NC(=O)[C@H](CCCCN)NC(=O)[C@H](C)NC(=O)[C@H](CC(C)C)NC(=O)[C@H](CCCCN)NC(=O)[C@H](CCCCN)NC(=O)[C@H](C)NC(=O)[C@H](CC(C)C)NC(=O)[C@@H](N)CCCCN [(KLAKKLA)2] (H-KLAKKLAKLAKKLA-OMe)
Sublethal Concentration, 3T3 (murine cell line 3T3): 394 µM
Sublethal Concentration, 3T12 (murine cell line 3T12): 788 µM

CC(C)C[C@H](NC(=O)[C@H](CCCCN)NC(=O)[C@H](C)NC(=O)[C@H](CC(C)C)NC(=O)[C@H](CCCCN)NC(=O)[C@H](CCCCN)NC(=O)[C@H](C)NC(=O)[C@H](CC(C)C)NC(=O)[C@H](CCCCN)NC(=O)[C@H](C)NC(=O)[C@H](CC(C)C)NC(=O)[C@H](CCCCN)NC(=O)[C@H](CCCCN)NC(=O)[C@H](C)NC(=O)[C@H](CC(C)C)NC(=O)[C@H](CCCCN)NC(=O)[C@H](C)NC(=O)[C@H](CC(C)C)NC(=O)[C@@H](N)CCCCN)C(=O)N[C@@H](C)C(=O)N[C@@H](CCCCN)C(N)=O [(KLAKLAK)3]
Minimum Inhibitory Concentration, P. aeruginosa [1]: 3.7 µM
Minimum Inhibitory Concentration, S. aureus [2]: 3.7 µM
Minimum Inhibitory Concentration, E. coli (E. coli ATCC 25922): 3.7 µM

COC(=O)[C@H](C)NC(=O)[C@H](CC(C)C)NC(=O)[C@H](CCCCN)NC(=O)[C@H](CCCCN)NC(=O)[C@H](C)NC(=O)[C@H](CC(C)C)NC(=O)[C@H](CCCCN)NC(=O)[C@H](C)NC(=O)[C@H](CC(C)C)NC(=O)[C@H](CCCCN)NC(=O)[C@H](CCCCN)NC(=O)[C@H](C)NC(=O)[C@H](CC(C)C)NC(=O)[C@@H](N)CCCCN [Peptide 14-mer, (KLAKKLA)2 -OCH3] (H-KLAKKLAKLAKKLA-OMe)
Concentration at which mammalian cell permeation to an exterior fluorescent dye begins, relative to concentrations that effectively inhibited bacterial growth (mammalian cell): about 50 times

CC[C@H](C)[C@H](NC(=O)CN)C(=O)NCC(=O)N[C@@H](C)C(=O)N[C@H](C(=O)N[C@@H](CC(C)C)C(=O)N[C@@H](CCCCN)C(=O)N[C@H](C(=O)N[C@@H](CC(C)C)C(=O)N[C@H](C(=O)N[C@H](C(=O)NCC(=O)N[C@@H](CC(C)C)C(=O)N1CCC[C@H]1C(=O)N[C@@H](C)C(=O)N[C@@H](CC(C)C)C(=O)N[C@H](C(=O)N[C@@H](CO)C(=O)N[C@@H](Cc1c[nH]c2ccccc12)C(=O)N[C@H](C(=O)N[C@@H](CCCCN)C(=O)N[C@@H](CCCNC(=N)N)C(=O)N[C@@H](CCCCN)C(=O)N[C@@H](CCCNC(=N)N)C(=O)N[C@@H](CCC(N)=O)C(=O)N[C@@H](CCC(N)=O)C(N)=O)[C@@H](C)CC)[C@@H](C)CC)[C@@H](C)O)[C@@H](C)O)C(C)C)C(C)C [melittin, reference compound]
Minimum Inhibitory Concentration, P. aeruginosa [1]: 2.3 µM
Sublethal Concentration, 3T3 (murine cell line 3T3): 0.78 µM
Sublethal Concentration, 3T12 (murine cell line 3T12): 0.78 µM
Minimum Inhibitory Concentration, S. aureus [2]: 0.56 µM
Minimum Inhibitory Concentration, E. coli (E. coli ATCC 25922): 0.56 µM

(KALKALK)3
Minimum Inhibitory Concentration, P. aeruginosa [1]: 3.9 µM
Minimum Inhibitory Concentration, S. aureus [2]: 7.8 µM
Minimum Inhibitory Concentration, E. coli (E. coli ATCC 25922): 3.9 µM

(KLAKKLA)
Minimum Inhibitory Concentration, P. aeruginosa [1]: > 100 µM
Sublethal Concentration, 3T3 (murine cell line 3T3): N.L.
Sublethal Concentration, 3T12 (murine cell line 3T12): N.L.
Minimum Inhibitory Concentration, S. aureus [2]: > 100 µM
Minimum Inhibitory Concentration, E. coli (E. coli ATCC 25922): > 100 µM

(KLAKKLA)3 (KLAKKLAKLAKKLAKLAKKLA)
Minimum Inhibitory Concentration, P. aeruginosa [1]: 4.2 µM
Sublethal Concentration, 3T3 (murine cell line 3T3): 9 µM
Sublethal Concentration, 3T12 (murine cell line 3T12): 17 µM
Minimum Inhibitory Concentration, S. aureus [2]: 4.2 µM
Minimum Inhibitory Concentration, E. coli (E. coli ATCC 25922): 4.2 µM

(KLAKKLA)4 (KLAKKLAKLAKKLAKLAKKLAKLAKKLA)
Minimum Inhibitory Concentration, P. aeruginosa [1]: 9.0 µM
Sublethal Concentration, 3T3 (murine cell line 3T3): 13 µM
Sublethal Concentration, 3T12 (murine cell line 3T12): 52 µM
Minimum Inhibitory Concentration, S. aureus [2]: 9.0 µM
Minimum Inhibitory Concentration, E. coli (E. coli ATCC 25922): 9.0 µM

(KLAKLAK)
Minimum Inhibitory Concentration, P. aeruginosa [1]: > 95 µM
Minimum Inhibitory Concentration, S. aureus [2]: > 95 µM
Minimum Inhibitory Concentration, E. coli (E. coli ATCC 25922): > 95 µM

(KLAKLAK)2 (KLAKLAKKLAKLAK)
Minimum Inhibitory Concentration, P. aeruginosa [1]: 5.8 µM
Minimum Inhibitory Concentration, S. aureus [2]: 5.8 µM
Minimum Inhibitory Concentration, E. coli (E. coli ATCC 25922): 5.8 µM

(KLAKLAK)4 (KLAKLAKKLAKLAKKLAKLAKKLAKLAK)
Minimum Inhibitory Concentration, P. aeruginosa [1]: 9.4 µM
Minimum Inhibitory Concentration, S. aureus [2]: 9.4 µM
Minimum Inhibitory Concentration, E. coli (E. coli ATCC 25922): 9.4 µM

(KLGKKLG)3 (KLGKKLGKLGKKLGKLGKKLG)
Minimum Inhibitory Concentration, P. aeruginosa [1]: 3.4 µM
Sublethal Concentration, 3T3 (murine cell line 3T3): 565 µM
Sublethal Concentration, 3T12 (murine cell line 3T12): 565 µM
Minimum Inhibitory Concentration, S. aureus [2]: 3.4 µM
Minimum Inhibitory Concentration, E. coli (E. coli ATCC 25922): 3.4 µM

cecropin B (KWKVFKKIEKMGRNIRNGIVKAGPAIAVLGEAKAL; UniProt P01508 27-61, looked up) [naturally occurring lytic peptide used for comparison, reference compound]
Minimum Inhibitory Concentration, P. aeruginosa [1]: 0.20 µM
Minimum Inhibitory Concentration, S. aureus [2]: 1.7 µM
Minimum Inhibitory Concentration, E. coli (E. coli ATCC 25922): 0.20 µM

magainin 2 (KLGKKLGKLGKKLGKLGKKLG) [naturally occurring lytic peptide used for comparison, reference compound]
Minimum Inhibitory Concentration, P. aeruginosa [1]: 0.65 µM
Minimum Inhibitory Concentration, S. aureus [2]: 1.3 µM
Minimum Inhibitory Concentration, E. coli (E. coli ATCC 25922): 1.3 µM
